Measurements published in patent publication US4849416A, “Treatment of conditions requiring enhanced oxygen availability to mammalian tissues” (Rorer Pharmaceutical Corporation, priority 1988, dated 1989).

Legend:
[1] = tested on: 2,3-diphosphoglycerate phosphatase; conditions: at optimal concentrations; cited from earlier work
2,3-DPG phosphatase = biological target: T1, 2,3-DPG phosphatase (Homo sapiens, UniProt P07738); assay: 2,3-Diphosphoglycerate phosphatase assay (radiochemical, release of 32P-phosphate from 2,3-DPG); format: biochemical; conditions: 110 μM 2,3-DPG, 5 μM phosphoglycolate, pH 7.5, 37° C., 20 minutes
T1 sequence (P07738 1-259): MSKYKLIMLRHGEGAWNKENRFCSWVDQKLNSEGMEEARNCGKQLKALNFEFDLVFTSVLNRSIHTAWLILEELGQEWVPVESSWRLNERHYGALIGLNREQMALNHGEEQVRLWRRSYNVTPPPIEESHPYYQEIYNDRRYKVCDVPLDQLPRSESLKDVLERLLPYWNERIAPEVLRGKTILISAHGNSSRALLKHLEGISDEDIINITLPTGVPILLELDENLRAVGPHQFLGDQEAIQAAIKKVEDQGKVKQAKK
Description: 1. 2,3-Diphosphoglycerate Phosphatase Assay
The activity of 2,3-DPG phosphatase was determined radiochemically using a method based on Rose et al., (J. Biol. Chem. 245, 3232-3241, 1970). In this method the activity of the phosphatase is measured by determining the release of inorganic phosphate from the substrate, 2,3-DPG. The test compounds were dissolved in dimethyl sulfoxide at 100 times the final concentration used and then added to the reaction mixture at the beginning of the assay period. In the control experiments equivalent concentration of dimethyl sulfoxide was used.
14 μg of 2,3-DPG phosphatase was incubated in 0.2 ml of N-tris-[Hydroxy-methyl]methyl-2-aminoethane-sulfonic acid [TES], at pH 7.5, containing 110 μM ^32 p-labeled 2,3-DPG (having a specific activity of 70 to 200 μCi/μmol), 5 μM phosphoglycolate and 5 μM mercaptoethanol at 37° C. for 20 minutes in the presence and absence of the test compound. at the end of incubation the reaction was stopped by the addition of 0.1 ml of 15% w/v trichloroacetic acid and the sample was centrifuged (Eppendorf microfuge, Model 5413) in order to remove protein preciptitates. Then 0.2 ml of the supernatant was withdrawn and mixed with 0.1 ml of 8 M sulfuric acid, 0.1 ml of 5% w/v ammonium molybdate and 0.6 ml of water. The mixture then was extracted with 2 ml of isobutanol/benzene (1:1,v/v) and then centrifuged to effect separation of the phases. 1 ml of the organic phase containing the extracted ^32 p-phosphate was counted in a scintillation counter (Beckman, Model LS 8,000) using a program for ^32 p radioactivity. The activity of the enzyme was expressed as number of mole phosphate released per minute.
From the data obtained using the radiochemical method, percent inhibition of 2,3-DPG phosphatase was calculated. […] Representative inhibitory activity is shown for sulfasalazine in Table I.

human red blood cells = assay: Determination of 2,3-diphosphoglyceric acid content in human red blood cells; format: cell-based
Description: 2. Determination of 2,3-Diphosphoglyceric Acid Content in Human Red Blood Cells Blood samples from healthy subjects were collected in heparnized tubes and were centrifuged for 10 minutes at 400 xg. The plasma and buffy layer containing while cells and platelets was removed. The red blood cells were washed three times in Krebs Ringer Bicarbonate buffer supplemented with 2.5 mg/ml bovine serum albumin. The washed cells were suspended in the same buffer in a ratio of 1 cell to 4 buffer v/v. The cell suspension was incubated in siliconized glass beakers in the absence and presence of the test compound at 37° C. in air, supplemented with 5% v/v carbon dioxide. After incubation, 1 ml of the blood sample was mixed with 1 ml of 12% w/v trichloroacetic acid. The mixture was left at 4° C. for 10 minutes and then was clarified by centrifugation. The 2,3-DPG content in the supernatant was quantified using a Sigma assay kit based on the method described by Lowry et al, J. Biol. Chem. 239, 18, 1964. Inhibition of 2,3-diphosphoglyceric acid degredation in human red blood cells was also conducted on compounds of the present invention and is shown in Table II for sulfasalazine.

Row | inhibition at 20 µM (2,3-DPG phosphatase; sulfasalazine 20 μM) [%] | inhibition at 100 µM (2,3-DPG phosphatase; sulfasalazine 100 μM) [%] | inhibition at 500 µM (2,3-DPG phosphatase; sulfasalazine 500 μM) [%] | inhibition at 1000 µM (2,3-DPG phosphatase; sulfasalazine 1000 μM) [%] | SMILES | enhancement of the activity of 2,3-diphosphoglycerate phosphatase [1] | 2,3-diphosphoglyceric acid content (human red blood cells; sulfasalazine 0.5 mM, incubation period 0 hrs, 37° C.) [μmole/ml RBC] | 2,3-diphosphoglyceric acid content (human red blood cells; sulfasalazine 0.5 mM, incubation period 3 hrs, 37° C. (control 3.7)) [μmole/ml RBC] | 2,3-diphosphoglyceric acid content (human red blood cells; sulfasalazine 0.5 mM, incubation period 6 hrs, 37° C. (control 2.4)) [μmole/ml RBC] | 2,3-diphosphoglyceric acid content (human red blood cells; sulfasalazine 1.0 mM, incubation period 0 hrs, 37° C.) [μmole/ml RBC] | 2,3-diphosphoglyceric acid content (human red blood cells; sulfasalazine 1.0 mM, incubation period 3 hrs, 37° C. (control 3.7)) [μmole/ml RBC] | 2,3-diphosphoglyceric acid content (human red blood cells; sulfasalazine 1.0 mM, incubation period 6 hrs, 37° C. (control 2.4)) [μmole/ml RBC]
1 | – | – | – | – | O=C(O)COP(=O)(O)O [2-Phosphoglycolate] | about 1600 fold | – | – | – | – | – | –
2 | 23 | 57 | 86 | 90 | O=C(O)c1cc(N=Nc2ccc(S(=O)(=O)Nc3ccccn3)cc2)ccc1O [sulfasalazine, 5-[[p-(2-pyridylsulfamoyl)phenyl]azo]salicyclic acid] | – | 4.4 | 3.9 | 3.0 | 4.4 | 4.1 | 3.5
